Columns and labels:
murine TLR2 = molecular target: T1, murine TLR2 (Mus musculus, UniProt Q9QUN7); assay: HEK-Blue mTLR2 NF-κB/AP-1 SEAP reporter cell assay; format: cell-based; details: HEK-Blue mTLR2 reporter cells, 10 μg/mL to 10 pg/ml, 24 hours, OD at 655 nm; FIG. 4
T1 construct: host or cells: HEK293 (HEK-Blue mTLR2)
Description: (§1) Some conjugated compounds of the invention were tested for their ability to activate TLR7 and TLR2 receptor signaling. Cell-based assays were carried out using TLR7 and TLR2 reporter cell lines (InvivoGen). The reporter cell lines are engineered HEK293 cells, a human embryonic kidney cell line (ATCC, CRL-1573) that stably express either murine TLR7 (HEK-Blue™ mTLR7) or human TLR7 (HEK-Blue™ hTLR7) or murine TLR2 (HEK-Blue™ mTLR2) or human TLR2 (HEK-Blue™ hTLR2) with an NF-κB-inducible secreted embryonic alkaline phosphatase (SEAP) as the reporter gene. The SEAP reporter gene is placed under the control of the NF-κB and AP-inducible promoter. Stimulation with the corresponding TLR ligand activates NF-κB and AP-1, which induces the production of SEAP. Detection of SEAP is measured following culturing cells in HEK-Blue™ Detection media (InvivoGen). HEK-Blue™ Detection contains a SEAP substrate, which upon hydrolysis by SEAP produces a colorimetric change allowing for detection of SEAP as the protein is secreted. […] These assays were carried out using RAW-Blue™ Cells (InvivoGen), derived from RAW 264.7 mouse leukemic monocytic macrophage cell line (ATCC, CRL 2278) stably overexpressing a NF-κB/AP-1 inducible SEAP reporter constructs.
(§2) To perform the assay, cells were seeded on 96 well microliter plates at 50,000 or 100,000 cells per well for HEK-Blue™ Cells and RAW-Blue™ Cells respectively, and cultured at 37° C. in the presence of the conjugated compounds. The conjugated compounds were prepared as follows: First, stock solutions of the small molecule conjugated compounds of the invention were prepared in ethanol or water to a concentration of 10 mg/ml. A working dilution of the conjugated TLR7-TLR2 small molecules was made up in water and added to cells at a final range of concentrations from 10 μg/mL to 10 pg/ml. The working dilutions of the conjugated TLR7-TLR2 small molecules as the stated concentrations were directly added to the reporter cell lines and incubated at 37° C. for 24 hours. After 24 hours of incubation, the effect on reporter gene activity was determined by reading the OD at 655 nm using iMark™ Microplate Reader (BIO-RAD).
(§3) The conjugated compounds were tested alone for their ability to specifically activate TLR7 and TLR2, alongside the known TLR7 activators R848 or CL264 (InvivoGen) and the TLR2 agonists Pam2CSK4 or Pam3CSK4 (InvivoGen). The specificity of the TLR activity was determined by use of reporter cell lines to the other TLRs (data not shown). […] The molecules show a tendency to activate mouse TLR7 with greater sensitivity than human TLR7. […] Furthermore, dose-dependent responses of the conjugated compounds indicate significant TLR activities of TLR7 and TLR2 compared to the corresponding controls.

[1] = test system: NF-κB in RAW-Blue™ Cells (RAW 264.7, endogenous TLR7 and TLR2); assay: RAW-Blue Cells NF-κB/AP-1 inducible SEAP reporter assay; format: cell-based, mouse; details: murine monocytic macrophage cell line RAW 264.7, 24 hours, OD at 655 nm; FIGS. 5A, 5B
Description: as §1, §2, §3

human TLR2 = molecular target: T2, human TLR2 (Homo sapiens, UniProt O60603); assay: HEK-Blue hTLR2 NF-κB/AP-1 SEAP reporter cell assay; format: cell-based; details: HEK-Blue hTLR2 reporter cells, 10 μg/mL to 10 pg/ml, 24 hours, OD at 655 nm; FIGS. 3A, 3B
T2 construct: host or cells: HEK293 (HEK-Blue hTLR2)
T2 sequence (O60603 21-784): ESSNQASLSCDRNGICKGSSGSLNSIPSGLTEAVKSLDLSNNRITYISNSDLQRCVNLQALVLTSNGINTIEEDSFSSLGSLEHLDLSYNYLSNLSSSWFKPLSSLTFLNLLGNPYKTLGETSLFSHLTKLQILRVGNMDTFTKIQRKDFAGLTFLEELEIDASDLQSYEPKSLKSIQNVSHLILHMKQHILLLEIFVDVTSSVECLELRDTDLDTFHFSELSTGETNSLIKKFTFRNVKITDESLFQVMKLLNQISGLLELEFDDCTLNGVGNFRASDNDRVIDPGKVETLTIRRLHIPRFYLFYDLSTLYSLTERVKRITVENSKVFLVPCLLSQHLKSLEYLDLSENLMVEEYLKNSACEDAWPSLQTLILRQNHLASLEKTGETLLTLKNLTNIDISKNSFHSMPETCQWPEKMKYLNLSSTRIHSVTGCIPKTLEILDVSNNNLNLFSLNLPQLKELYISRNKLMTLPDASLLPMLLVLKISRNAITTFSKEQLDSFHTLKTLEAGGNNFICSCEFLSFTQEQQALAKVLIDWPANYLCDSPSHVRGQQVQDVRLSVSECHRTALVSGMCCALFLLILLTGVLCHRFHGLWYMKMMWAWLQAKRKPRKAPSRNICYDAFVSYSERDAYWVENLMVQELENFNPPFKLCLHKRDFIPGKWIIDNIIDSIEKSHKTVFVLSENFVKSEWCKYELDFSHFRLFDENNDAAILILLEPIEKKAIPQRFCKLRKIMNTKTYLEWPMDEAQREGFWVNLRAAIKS
Description: as §1, §2, §3

murine TLR7 = molecular target: T3, murine TLR7 (Mus musculus, UniProt P58681); assay: HEK-Blue mTLR7 NF-κB/AP-1 SEAP reporter cell assay; format: cell-based; details: HEK-Blue mTLR7 reporter cells, 10 μg/mL to 10 pg/ml, 24 hours, OD at 655 nm; FIGS. 2A, 2B
T3 construct: host or cells: HEK293 (HEK-Blue mTLR7)
T3 sequence (P58681 27-1050): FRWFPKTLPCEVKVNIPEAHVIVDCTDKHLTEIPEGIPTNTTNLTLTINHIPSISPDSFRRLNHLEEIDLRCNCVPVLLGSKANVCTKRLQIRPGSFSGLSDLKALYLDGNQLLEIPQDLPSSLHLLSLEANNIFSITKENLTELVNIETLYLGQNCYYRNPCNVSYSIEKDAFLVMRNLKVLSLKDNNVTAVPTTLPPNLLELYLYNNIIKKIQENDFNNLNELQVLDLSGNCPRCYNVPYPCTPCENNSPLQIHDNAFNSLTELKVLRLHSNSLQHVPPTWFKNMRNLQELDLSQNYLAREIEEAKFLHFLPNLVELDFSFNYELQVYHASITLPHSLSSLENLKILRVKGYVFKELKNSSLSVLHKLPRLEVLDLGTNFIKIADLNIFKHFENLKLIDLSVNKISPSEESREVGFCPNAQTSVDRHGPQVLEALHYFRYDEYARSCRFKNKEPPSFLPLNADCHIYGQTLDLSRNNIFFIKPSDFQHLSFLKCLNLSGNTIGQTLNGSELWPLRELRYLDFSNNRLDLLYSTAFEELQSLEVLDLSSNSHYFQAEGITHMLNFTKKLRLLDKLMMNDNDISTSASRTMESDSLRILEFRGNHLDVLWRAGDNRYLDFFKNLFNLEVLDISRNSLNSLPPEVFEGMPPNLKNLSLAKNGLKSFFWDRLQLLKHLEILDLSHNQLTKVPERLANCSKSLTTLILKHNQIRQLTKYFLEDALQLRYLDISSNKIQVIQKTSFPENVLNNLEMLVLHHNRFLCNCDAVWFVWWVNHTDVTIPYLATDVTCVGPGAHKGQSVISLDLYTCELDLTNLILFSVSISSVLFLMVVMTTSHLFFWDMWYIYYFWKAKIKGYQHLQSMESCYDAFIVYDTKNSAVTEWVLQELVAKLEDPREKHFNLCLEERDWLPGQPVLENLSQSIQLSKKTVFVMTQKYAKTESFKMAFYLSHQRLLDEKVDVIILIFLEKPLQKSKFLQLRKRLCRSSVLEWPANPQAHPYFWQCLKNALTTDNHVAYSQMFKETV
Description: as §1, §2, §3

human TLR7 = molecular target: T4, human TLR7 (Homo sapiens, UniProt Q9NYK1); assay: HEK-Blue hTLR7 NF-κB/AP-1 SEAP reporter cell assay; format: cell-based; details: HEK-Blue hTLR7 reporter cells, 10 μg/mL to 10 pg/ml, 24 hours, OD at 655 nm; FIGS. 1A, 1B
T4 construct: host or cells: HEK293 (HEK-Blue hTLR7)
T4 sequence (Q9NYK1 27-1049): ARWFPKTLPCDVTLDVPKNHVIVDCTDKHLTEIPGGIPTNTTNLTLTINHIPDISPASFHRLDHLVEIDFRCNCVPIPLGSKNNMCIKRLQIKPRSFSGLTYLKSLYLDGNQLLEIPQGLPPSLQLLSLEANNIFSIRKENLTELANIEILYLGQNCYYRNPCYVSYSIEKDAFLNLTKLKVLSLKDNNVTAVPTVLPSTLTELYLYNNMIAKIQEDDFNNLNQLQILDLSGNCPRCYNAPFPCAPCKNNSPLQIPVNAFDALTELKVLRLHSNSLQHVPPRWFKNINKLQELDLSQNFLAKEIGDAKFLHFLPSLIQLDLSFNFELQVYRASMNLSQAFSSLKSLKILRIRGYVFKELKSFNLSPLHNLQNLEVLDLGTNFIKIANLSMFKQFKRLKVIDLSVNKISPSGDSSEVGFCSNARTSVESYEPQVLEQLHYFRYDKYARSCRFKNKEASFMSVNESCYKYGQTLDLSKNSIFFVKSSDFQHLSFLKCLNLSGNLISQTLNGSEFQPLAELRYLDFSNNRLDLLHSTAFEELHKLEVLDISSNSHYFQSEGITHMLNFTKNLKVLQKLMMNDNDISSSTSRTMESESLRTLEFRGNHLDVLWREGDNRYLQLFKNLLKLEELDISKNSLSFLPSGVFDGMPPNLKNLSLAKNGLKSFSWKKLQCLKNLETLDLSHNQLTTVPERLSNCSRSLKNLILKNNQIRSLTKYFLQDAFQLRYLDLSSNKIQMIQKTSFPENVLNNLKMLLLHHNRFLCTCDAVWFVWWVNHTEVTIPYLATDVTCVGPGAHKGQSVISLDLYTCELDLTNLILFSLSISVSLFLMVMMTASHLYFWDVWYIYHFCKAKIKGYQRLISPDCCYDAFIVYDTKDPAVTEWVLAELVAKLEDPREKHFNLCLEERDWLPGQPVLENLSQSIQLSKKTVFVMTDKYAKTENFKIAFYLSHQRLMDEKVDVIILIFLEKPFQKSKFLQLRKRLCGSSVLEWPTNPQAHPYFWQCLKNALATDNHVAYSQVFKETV
Description: as §1, §2, §3

T1 sequence (Q9QUN7 25-784): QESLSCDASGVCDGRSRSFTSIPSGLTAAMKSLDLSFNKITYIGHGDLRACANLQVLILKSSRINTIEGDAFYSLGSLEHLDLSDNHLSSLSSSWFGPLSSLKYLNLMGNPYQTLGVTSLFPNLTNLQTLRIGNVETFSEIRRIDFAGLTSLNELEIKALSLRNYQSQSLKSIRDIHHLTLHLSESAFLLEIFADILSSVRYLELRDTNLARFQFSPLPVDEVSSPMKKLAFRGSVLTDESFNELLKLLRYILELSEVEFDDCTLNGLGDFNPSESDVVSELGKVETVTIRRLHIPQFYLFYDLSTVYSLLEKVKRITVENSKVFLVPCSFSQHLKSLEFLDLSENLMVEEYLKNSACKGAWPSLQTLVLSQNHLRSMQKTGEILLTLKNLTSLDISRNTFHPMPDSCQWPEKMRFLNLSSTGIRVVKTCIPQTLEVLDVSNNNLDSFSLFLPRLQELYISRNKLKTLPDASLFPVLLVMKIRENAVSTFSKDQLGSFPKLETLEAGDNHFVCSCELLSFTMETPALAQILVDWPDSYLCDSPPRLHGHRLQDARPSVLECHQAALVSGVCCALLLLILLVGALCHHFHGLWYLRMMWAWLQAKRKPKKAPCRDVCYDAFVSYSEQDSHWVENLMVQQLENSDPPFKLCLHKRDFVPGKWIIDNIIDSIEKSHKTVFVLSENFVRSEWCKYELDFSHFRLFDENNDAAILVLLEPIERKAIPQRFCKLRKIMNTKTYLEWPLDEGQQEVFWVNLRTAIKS

SMILES	ability to activate TLR2 receptor (murine TLR2) (murine TLR2)	induction of NF-κB in RAW-Blue cells [1]	ability to activate TLR2 receptor (human TLR2) (human TLR2)	ability to activate TLR7 receptors (murine TLR7) (murine TLR7)	ability to activate TLR7 receptors (human TLR7) (human TLR7)
CCCCCCCCCCCCCC(=O)OCCSC[C@H](N)C(=O)Nc1ccc(Cn2c(O)nc3c(N)nc(NCCCC)nc32)cc1 [CL555, (R)-2-(2-amino-3-(4-((6-amino-2-(butylamino)-8-hydroxy-9H-purin-9-yl)methyl)phenylamino)-3-oxopropylthio)ethyl tetradecanoate]	activate TLR2 receptor	activate NF-κB	activate TLR2 receptor	activate TLR7 receptors	activate TLR7 receptors
CCCCCCCCCCCCCCCC(=O)OCCSC[C@H](N)C(=O)Nc1ccc(Cn2c(O)nc3c(N)nc(NCCCC)nc32)cc1 [CL556, (R)-2-(2-amino-3-(4-((6-amino-2-(butylamino)-8-hydroxy-9H-purin-9-yl)methyl)phenylamino)-3-oxopropylthio)ethyl palmitate]	activate TLR2 receptor	activate NF-κB	activate TLR2 receptor	activate TLR7 receptors	activate TLR7 receptors
CCCCCCCCCCCCCCCCCC(=O)OCCSC[C@H](N)C(=O)N[C@@H](CO)C(=O)Nc1ccc(Cn2c(O)nc3c(N)nc(NCCCC)nc32)cc1 [CL560, 2-((R)-2-amino-3-((S)-1-(4-((6-amino-2-(butylamino)-8-hydroxy-9H-purin-9-yl)methyl)phenylamino)-3-hydroxy-1-oxopropan-2-ylamino)-3-oxopropylthio)ethyl stearate]	activate TLR2 receptor	activate NF-κB	activate TLR2 receptor	activate TLR7 receptors	activate TLR7 receptors
CCCCCCCCCCCCCC(=O)OCCSC[C@H](N)C(=O)N[C@@H](CCC(=O)Nc1ccc(Cn2c(O)nc3c(N)nc(NCCCC)nc32)cc1)C(=O)OC [CL572, 2-((R)-2-amino-3-((S)-5-(4-((6-amino-2-(butylamino)-8-hydroxy-9H-purin-9-yl)methyl)phenylamino)-1-methoxy-1,5-dioxopentan-2-ylamino)-3-oxopropylthio)ethyl tetradecanoate]	activate TLR2 receptor		activate TLR2 receptor	activate TLR7 receptors	activate TLR7 receptors
CCCCCCCCCCCCCCCC(=O)OCC(CSC[C@H](N)C(=O)N[C@@H](CO)C(=O)Nc1ccc(Cn2c(O)nc3c(N)nc(NCCCC)nc32)cc1)OC(=O)CCCCCCCCCCCCCCC (stereo partly drawn) [CL453, 3-((R)-2-amino-3-((S)-1-(4-((6-amino-2-(butylamino)-8-hydroxy-9H-purin-9-yl)methyl)phenylamino)-3-hydroxy-1-oxopropan-2-ylamino)-3-oxopropylthio)propane-1,2-diyl dipalmitate]		activate NF-κB	activate TLR2 receptor	activate TLR7 receptors	activate TLR7 receptors
CCCCCCCCCCCCCCCC(=O)N[C@@H](CSCC(COC(=O)CCCCCCCCCCCCCCC)OC(=O)CCCCCCCCCCCCCCC)C(=O)Nc1ccc(Cn2c(O)nc3c(N)nc(NCCCC)nc32)cc1 (mixture of isomers) [CL446, (R)-3-(3-(4-((6-amino-2-(butylamino)-8-hydroxy-9H-purin-9-yl)methyl)phenylamino)-3-oxo-2-palmitamidopropylthio)propane-1,2-diyl dipalmitate]		activate NF-κB	activate TLR2 receptor	activate TLR7 receptors	activate TLR7 receptors

Source: patent US9567336B2, “Conjugated TLR7 and/or TLR8 and TLR2 agonists” (CAYLA, priority 2012, dated 2017)
